From the supplement of paper PMC8967900

Assays:
Assay in all cases: selective drug sensitivity score (sDSS, relative to normal bone marrow) (sDSS (score)); higher = more potent and effective on the cell line relative to normal bone marrow cells
Conditions in all cases: 72 h
[1] = system: 697
[2] = system: NALL-1
[3] = system: SEM cells
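Further: ALL cell lines in 384-well plates, five doses spanning 10,000-fold, each plate scaled between vehicle and 100 µmol/L benzalkonium chloride controls, sDSS an adapted area-under-curve metric.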

SMILES | selective drug sensitivity score [1] | selective drug sensitivity score [2] | selective drug sensitivity score [3]
Cc1ccc(C(=O)N(CCCN)[C@@H](c2oc3cc(Cl)ccc3c(=O)c2Cc2ccccc2)C(C)C)cc1 (top concentration 100 nM) | 1.36 | 6.06 | 5.66
C[C@@H](Oc1ccc2[nH]nc(/C=C/c3cnn(CCO)c3)c2c1)c1c(Cl)cncc1Cl (top concentration 1000 nM) | 1.96 | -1.74 | 6.26
CCn1c(C(=O)N(C2CC2)C2CC2)cc2c3c(ncn3C)c(Nc3cc(C)n(C)n3)nc21 (top concentration 10000 nM) | -3.76 | 0.44 | 0.94
CNc1nc(-c2ccc3c(N)n[nH]c3c2)cc(N2C[C@@H](C(=O)NC3CCCCC3)CC[C@H]2C)n1 (top concentration 10000 nM) | 9.06 | -0.14 | 3.26
COc1ccc(Cn2ccc3ccc(C(=O)NO)cc32)cc1 (top concentration 10000 nM) | 4.34 | -0.86 | 2.94
N#Cc1ccc(COC[C@H]2O[C@@H](n3c(NCc4ccc(Cl)c(Cl)c4)nc4c(N)ncnc43)[C@H](O)[C@@H]2O)cc1 (top concentration 10000 nM) | 4.72 | -0.48 | 5.22
NC[C@@](O)(c1ccc(Cl)cc1)c1ccc(-c2cn[nH]c2)cc1 (top concentration 10000 nM) | 9.78 | -1.22 | 6.58
O=c1[nH]c(C2CCCN2)nc2c1oc1ccc(Cl)cc12 (centres undefined) (top concentration 10000 nM) | 6.2 | 0.8 | -1.6
NCC(=O)Nc1ccc(-n2nc(C(F)(F)F)cc2-c2ccc3c(ccc4ccccc43)c2)cc1 (top concentration 25000 nM) | 10.8 | 5 | 8
Nc1ncnc2c1nc(Cl)n2[C@@H]1O[C@H](CO)[C@@H](O)[C@H]1O [8-chloro-adenosine] (top concentration 50000 nM) | 4.1 | -5.3 | 7.1
COc1ccc(S(=O)(=O)Nc2cccnc2Nc2ccc(O)cc2)cc1 [ABT-751] (top concentration 10000 nM) | 12.8 | 10.8 | 14.7
CC1CCC(n2c3cnccc3c3cnc(Nc4ccc5c(n4)CCN(C(=O)CO)C5)nc32)CC1 (centres undefined) [AMG-925] (top concentration 1000 nM) | 11.4 | -0.16 | 10
O=C(NC1CCNCC1)c1n[nH]cc1NC(=O)c1c(Cl)cccc1Cl [AT7519] (top concentration 10000 nM) | -2.46 | -8.16 | -4.76
Cc1cc2c(C(C)C)c(O)c(O)c(C=O)c2c(O)c1-c1c(C)cc2c(C(C)C)c(O)c(O)c(C=O)c2c1O [AT-101] (top concentration 100000 nM) | 3.08 | 4.58 | 3.78
N[C@@H]1CCCN(c2c(/C=C3\SC(=O)NC3=O)cccc2-c2ccccc2)C1 [AZD1208] (top concentration 10000 nM) | 1.2 | 2.4 | -4.4
Cc1ncc(-c2ccnc(Nc3ccc(S(C)(=O)=O)cc3)n2)n1C(C)C [AZD-5438] (top concentration 10000 nM) | 0.94 | -6.86 | 2.34
CCN1CCN(Cc2ccc(Nc3ncc(F)c(-c4cc(F)c5nc(C)n(C(C)C)c5c4)n3)nc2)CC1 [Abemaciclib] (top concentration 2500 nM) | 8.44 | -5.96 | -1.86

SMILES | selective drug sensitivity score [1] | selective drug sensitivity score [2] | selective drug sensitivity score [3]
Cn1ncc(Cl)c1-c1cc(C(=O)N[C@H](CN)Cc2cccc(F)c2)sc1Cl [Afuresertib] (top concentration 1000 nM) | 0.76 | -2.34 | 0.36
O=C(Nc1cc(Oc2cc(F)c(NC(=O)C3(C(=O)Nc4ccc(F)cc4)CC3)cc2F)ccn1)C1CC1 [Altiratinib] (top concentration 10000 nM) | 4.24 | 4.14 | 13.7
CN1CC[C@H](c2c(O)cc(O)c3c(=O)cc(-c4ccccc4Cl)oc23)[C@H](O)C1 [Alvocidib] (top concentration 10000 nM) | 1.3 | -7.1 | -3.5
CC(C)c1c(C(=O)Nc2ccccc2)c(-c2ccccc2)c(-c2ccc(F)cc2)n1CC[C@@H](O)C[C@@H](O)CC(=O)O [Atorvastatin] (top concentration 10000 nM) | -2.4 | 0.1 | 0.4
Nc1ncn([C@@H]2O[C@H](CO)[C@@H](O)[C@H]2O)c(=O)n1 [Azacitidine] (top concentration 10000 nM) | 10.9 | 4.14 | 8.74
Cc1cc(-c2nc(-c3ccc(OC(F)(F)F)cc3)no2)nn1Cc1ccnc(N2CCN(C3CC3)CC2)c1 [BAY_87-2243] (top concentration 1000 nM) | 18.7 | 0.04 | 6.84
O=C(Nc1cccc(Nc2ncc(Br)c(NCCc3cnc[nH]3)n2)c1)N1CCCC1 [BX-912] (top concentration 10000 nM) | 10.4 | 7.36 | 13.4
C=C(c1ccc(C(=O)O)cc1)c1cc2c(cc1C)C(C)(C)CCC2(C)C [Bexarotene] (top concentration 10000 nM) | -2.7 | -4.5 | 2.9
Cn1cnc2c(F)c(Nc3ccc(Br)cc3F)c(C(=O)NOCCO)cc21 [Binimetinib] (top concentration 1000 nM) | -1.62 | -2.22 | -2.22
COc1cc(N2CCC(N3CCN(C)CC3)CC2)ccc1Nc1ncc(Cl)c(Nc2ccccc2P(C)(C)=O)n1 [Brigatinib] (top concentration 1000 nM) | -1.84 | -3.34 | 4.06
CC1=NN(c2ccc(C(=O)O)cc2)C(=O)C1=Cc1ccc(-c2cc(C)c(C)cc2[N+](=O)[O-])o1 [C646] (top concentration 25000 nM) | 2.34 | -2.06 | -0.26
CCN1C(=O)CNc2ncc(-c3ccc(-c4nc[nH]n4)nc3C)nc21 [CC-115] (top concentration 10000 nM) | 4.14 | 4.24 | 0.04
Cc1noc2c1-c1ccccc1C(c1ccc(Cl)cc1)=N[C@H]2CC(N)=O [CPI-0610] (top concentration 10000 nM) | 7.1 | -4.4 | 7.5
Cc1cc(Nc2ncc(Cl)c(Nc3ccccc3S(=O)(=O)C(C)C)n2)c(OC(C)C)cc1C1CCNCC1 [Ceritinib] (top concentration 2500 nM) | -2.24 | -2.14 | -3.44
Nc1nc(Cl)nc2c1ncn2[C@@H]1O[C@H](CO)[C@@H](O)[C@@H]1F [Clofarabine] (top concentration 10000 nM) | 9.6 | 1.8 | 7
CC1(COc2ccc3c(c2)ncn3-c2ccc3cccc(N4CCC(N)CC4)c3n2)COC1 [Crenolanib] (top concentration 10000 nM) | 3.28 | 1.58 | 13.9
